# Where a name gives a salt, the structure may show the parent alone.
# Target: GCN2 (Homo sapiens, UniProt Q9P2K8)
# Assay: GCN2 enzymatic endpoint assay: phosphorylation of GFP-eIF2α measured by TR-FRET (Lanthascreen)
# Format: biochemical
# Conditions: GCN2 biochemical IC50; 4 nM GCN2, 2 μM ATP, 80 nM GFP-eIF2α, 90 min RT; read-out: GCN2 activity
# Method in brief: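 Endpoint GCN2 reaction with low ATP (2 μM) and 80 nM GFP-eIF2α, room temperature, 90 minutes. Detection mix with EDTA and Tb-labelled antibody; 520 nm/495 nm emission ratio reported.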
# Sequence of GCN2 (Q9P2K8 whole entry): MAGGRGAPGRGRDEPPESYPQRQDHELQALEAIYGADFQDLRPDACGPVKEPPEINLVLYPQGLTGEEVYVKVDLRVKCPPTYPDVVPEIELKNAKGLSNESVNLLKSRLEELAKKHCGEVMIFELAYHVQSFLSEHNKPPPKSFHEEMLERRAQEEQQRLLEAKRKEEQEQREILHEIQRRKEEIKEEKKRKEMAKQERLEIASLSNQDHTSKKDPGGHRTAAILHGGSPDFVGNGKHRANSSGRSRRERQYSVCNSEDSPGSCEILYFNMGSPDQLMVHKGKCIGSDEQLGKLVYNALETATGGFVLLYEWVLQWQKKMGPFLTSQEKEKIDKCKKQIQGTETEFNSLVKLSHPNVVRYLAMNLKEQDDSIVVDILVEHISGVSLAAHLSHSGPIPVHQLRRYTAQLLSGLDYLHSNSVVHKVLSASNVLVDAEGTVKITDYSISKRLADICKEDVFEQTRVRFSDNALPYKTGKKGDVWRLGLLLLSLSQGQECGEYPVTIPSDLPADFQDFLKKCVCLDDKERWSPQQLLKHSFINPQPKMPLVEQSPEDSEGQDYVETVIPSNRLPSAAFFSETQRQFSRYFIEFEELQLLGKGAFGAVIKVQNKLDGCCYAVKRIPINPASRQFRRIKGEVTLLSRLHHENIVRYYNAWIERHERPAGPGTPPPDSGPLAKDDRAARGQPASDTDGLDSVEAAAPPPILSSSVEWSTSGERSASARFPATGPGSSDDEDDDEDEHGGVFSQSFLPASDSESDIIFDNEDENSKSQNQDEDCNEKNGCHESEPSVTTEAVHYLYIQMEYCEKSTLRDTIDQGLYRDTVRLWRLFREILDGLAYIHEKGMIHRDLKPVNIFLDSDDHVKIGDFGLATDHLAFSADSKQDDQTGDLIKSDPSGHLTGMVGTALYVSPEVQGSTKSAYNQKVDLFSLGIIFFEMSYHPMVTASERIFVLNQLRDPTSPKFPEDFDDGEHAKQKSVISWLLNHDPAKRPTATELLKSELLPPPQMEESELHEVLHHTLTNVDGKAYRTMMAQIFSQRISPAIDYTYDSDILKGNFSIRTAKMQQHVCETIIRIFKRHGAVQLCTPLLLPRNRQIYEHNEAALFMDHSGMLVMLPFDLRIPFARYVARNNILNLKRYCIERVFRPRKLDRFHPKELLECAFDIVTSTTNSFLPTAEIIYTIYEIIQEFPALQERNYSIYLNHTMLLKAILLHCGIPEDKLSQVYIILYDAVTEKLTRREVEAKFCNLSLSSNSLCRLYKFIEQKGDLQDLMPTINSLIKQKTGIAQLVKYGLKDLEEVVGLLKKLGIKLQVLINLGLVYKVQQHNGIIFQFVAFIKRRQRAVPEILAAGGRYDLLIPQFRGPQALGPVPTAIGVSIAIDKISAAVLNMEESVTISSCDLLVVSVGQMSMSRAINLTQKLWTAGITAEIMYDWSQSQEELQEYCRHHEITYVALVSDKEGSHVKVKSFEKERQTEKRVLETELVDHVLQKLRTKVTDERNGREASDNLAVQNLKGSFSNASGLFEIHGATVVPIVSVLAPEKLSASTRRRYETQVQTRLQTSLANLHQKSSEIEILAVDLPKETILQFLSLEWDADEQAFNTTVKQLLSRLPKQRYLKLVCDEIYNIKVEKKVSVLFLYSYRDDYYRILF
row,Compound,IC50 [nM]
1,"CNC(=O)[C@]1(CC#N)CC[C@@H](Nc2ncc3c(Br)nn(-c4cc(F)c5ncccc5c4)c3n2)C1 [Example 40, (1R,3R)-3-((3-bromo-1-(8-fluoroquinolin-6-yl)-1H-pyrazolo[3,4-d]pyrimidin-6-yl)amino)-1-(cyanomethyl)-N-methylcyclopentane-1-carboxamide hydrochloride]",< 25
2,"CNC(=O)[C@]1(CCC#N)CC[C@@H](Nc2ncc3c(Br)nn(-c4cc(F)c5ncccc5c4)c3n2)C1 [Example 43, (1S,3R)-3-((3-bromo-1-(8-fluoroquinolin-6-yl)-1H-pyrazolo[3,4-d]pyrimidin-6-yl)amino)-1-(2-cyanoethyl)-N-methylcyclopentane-1-carboxamide hydrochloride]",< 25
3,"CNC(=O)C1(C)CC[C@@H](Nc2ncc3c(Br)nn(-c4ccc(-c5cccnc5)c(C#N)c4)c3n2)C1 (stereo partly drawn) [Example 44, (3R)-3-((3-bromo-1-(3-cyano-4-(pyridin-3-yl)phenyl)-1H-pyrazolo[3,4-d]pyrimidin-6-yl)amino)-N,1-dimethylcyclopentane-1-carboxamide; 2,2,2-trifluoroacetic acid]",25 to 200
4,"CNC(=O)[C@]1(C)CC[C@@H](Nc2ncc3c(Br)nn(-c4ccc(-c5ncco5)c(CC#N)c4)c3n2)C1 [Example 45, (1R,3R)-3-((3-bromo-1-(3-(cyanomethyl)-4-(oxazol-2-yl)phenyl)-1H-pyrazolo[3,4-d]pyrimidin-6-yl)amino)-N,1-dimethylcyclopentane-1-carboxamide; 2,2,2-trifluoroacetic acid]",25 to 200
5,"CNC(=O)[C@]1(C)CC[C@@H](Nc2ncc3c(Br)nn(-c4ccc(-c5nnc(C(C)(C)N)o5)cc4)c3n2)C1 [Example 47, (1R,3R)-3-((1-(4-(5-(2-aminopropan-2-yl)-1,3,4-oxadiazol-2-yl)phenyl)-3-bromo-1H-pyrazolo[3,4-d]pyrimidin-6-yl)amino)-N,1-dimethylcyclopentane-1-carboxamide; 2,2,2-trifluoroacetic acid]",25 to 200
6,"O=C1NCC[C@]12CC[C@@H](Nc1ncc3c(Br)nn(-c4cc(F)c5ncccc5c4)c3n1)C2 [Example 48, (5S,7R)-7-((3-bromo-1-(8-fluoroquinolin-6-yl)-1H-pyrazolo[3,4-d]pyrimidin-6-yl)amino)-2-azaspiro[4.4]nonan-1-one hydrochloride]",25 to 200
7,"CNC(=O)[C@]1(C)CC[C@@H](Nc2ncc3c(Br)nn(-c4ccc(-c5nnc(C)s5)c(CCC#N)c4)c3n2)C1 [Example 49, (1R,3R)-3-((3-bromo-1-(3-(2-cyanoethyl)-4-(5-methyl-1,3,4-thiadiazol-2-yl)phenyl)-1H-pyrazolo[3,4-d]pyrimidin-6-yl)amino)-N,1-dimethylcyclopentane-1-carboxamide]",25 to 200
8,"CNC(=O)[C@]1(CC(F)F)CC[C@@H](Nc2ncc3c(Br)nn(-c4ccc5nccnc5c4)c3n2)C1 [Example 51, (1R,3R)-3-((3-bromo-1-(quinoxalin-6-yl)-1H-pyrazolo[3,4-d]pyrimidin-6-yl)amino)-1-(2,2-difluoroethyl)-N-methylcyclopentane-1-carboxamide; 2,2,2-trifluoroacetic acid]",25 to 200
9,"CNC(=O)[C@]1(CC(F)F)CC[C@@H](Nc2ncc3c(Br)nn(-c4ccc(-c5nnc(C)s5)c(CCC#N)c4)c3n2)C1 [Example 53, (1R,3R)-3-((3-bromo-1-(3-(2-cyanoethyl)-4-(5-methyl-1,3,4-thiadiazol-2-yl)phenyl)-1H-pyrazolo[3,4-d]pyrimidin-6-yl)amino)-1-(2,2-difluoroethyl)-N-methylcyclopentane-1-carboxamide; 2,2,2-trifluoroacetic acid]",25 to 200
10,"CNC(=O)[C@]1(C)CC[C@@H](Nc2ncc3c(Br)nn(-c4cccc(NC(=O)c5cnccn5)c4)c3n2)C1 [Example 54, N-(3-(3-bromo-6-(((1R,3R)-3-methyl-3-(methylcarbamoyl)cyclopentyl)amino)-1H-pyrazolo[3,4-d]pyrimidin-1-yl)phenyl)pyrazine-2-carboxamide]",25 to 200
11,"Cc1nnc(-c2ccc(-n3nc(Br)c4cnc(N[C@@H]5CC[C@@H](P(C)(C)=O)C5)nc43)cc2)s1 [Example 57, ((1R,3R)-3-((3-bromo-1-(4-(5-methyl-1,3,4-thiadiazol-2-yl)phenyl)-1H-pyrazolo[3,4-d]pyrimidin-6-yl)amino)cyclopentyl)dimethylphosphine oxide]",25 to 200
12,"CNC(=O)[C@]1(C)CC[C@@H](Nc2ncc3c(Br)nn(-c4ccc(N5CCOCC5)c(C#N)c4)c3n2)C1 [Example 59, (1R,3R)-3-((3-bromo-1-(3-cyano-4-morpholinophenyl)-1H-pyrazolo[3,4-d]pyrimidin-6-yl)amino)-N,1-dimethylcyclopentane-1-carboxamide hydrochloride]",25 to 200
13,"Cc1nnc(-c2ccc(-n3nc(Br)c4cnc(N[C@@H]5CC[C@@](C)(C(N)=O)C5)nc43)cc2)s1 [Example 60, (1R,3R)-3-((3-bromo-1-(4-(5-methyl-1,3,4-thiadiazol-2-yl)phenyl)-1H-pyrazolo[3,4-d]pyrimidin-6-yl)amino)-1-methylcyclopentane-1-carboxamide]",25 to 200
14,"CNC(=O)[C@]1(C)CC[C@@H](Nc2ncc3c(Br)nn(-c4ccc(-c5ncco5)c(CCN(C)C)c4)c3n2)C1 [Example 62, (1R,3R)-3-((3-bromo-1-(3-(2-(dimethylamino)ethyl)-4-(oxazol-2-yl)phenyl)-1H-pyrazolo[3,4-d]pyrimidin-6-yl)amino)-N,1-dimethylcyclopentane-1-carboxamide; 2,2,2-trifluoroacetic acid]",25 to 200
15,"CNC(=O)[C@]1(C)CC[C@@H](Nc2ncc3c(Br)nn(-c4ccc(-c5nnc(C)s5)c(CCN(C)C)c4)c3n2)C1 [Example 63, (1R,3R)-3-((3-bromo-1-(3-(2-(dimethylamino)ethyl)-4-(5-methyl-1,3,4-thiadiazol-2-yl)phenyl)-1H-pyrazolo[3,4-d]pyrimidin-6-yl)amino)-N,1-dimethylcyclopentane-1-carboxamide; 2,2,2-trifluoroacetic acid]",25 to 200
16,"Cc1nnc(-c2ccc(-n3nc(Br)c4cnc(N[C@@H]5CC[C@@](C)(O)C5)nc43)cc2C#N)s1 [Example 67, 5-(3-bromo-6-(((1R,3R)-3-hydroxy-3-methylcyclopentyl)amino)-1H-pyrazolo[3,4-d]pyrimidin-1-yl)-2-(5-methyl-1,3,4-thiadiazol-2-yl)benzonitrile]",< 25

# The remaining lines, values ahead:
row,IC50 [nM],Compound
1,< 25,"CNC(=O)[C@]1(C)CC[C@@H](Nc2ncc3c(Br)nn(-c4cc(Cl)cc(CCN)c4)c3n2)C1 [Example 41, (1R,3R)-3-((1-(3-(2-aminoethyl)-5-chlorophenyl)-3-bromo-1H-pyrazolo[3,4-d]pyrimidin-6-yl)amino)-N,1-dimethylcyclopentane-1-carboxamide hydrochloride]"
2,< 25,"CNC(=O)[C@]1(C)CC[C@@H](Nc2ncc3c(Br)nn(-c4ccc5nnccc5c4)c3n2)C1 [Example 42, (1R,3R)-3-((3-bromo-1-(cinnolin-6-yl)-1H-pyrazolo[3,4-d]pyrimidin-6-yl)amino)-N,1-dimethylcyclopentane-1-carboxamide; 2,2,2-trifluoroacetic acid]"
3,25 to 200,"CNC(=O)[C@]1(C)CC[C@@H](Nc2ncc3c(Br)nn(-c4cc(Cl)cc(CO)c4)c3n2)C1 [Example 46, (1R,3R)-3-((3-bromo-1-(3-chloro-5-(hydroxymethyl)phenyl)-1H-pyrazolo[3,4-d]pyrimidin-6-yl)amino)-N,1-dimethylcyclopentane-1-carboxamide; 2,2,2-trifluoroacetic acid]"
4,25 to 200,"CNC(=O)[C@]1(C)CC[C@@H](Nc2ncc3c(Br)nn(-c4cc(C#N)c5c(c4)CCO5)c3n2)C1 [Example 50, (1R,3R)-3-((3-bromo-1-(7-cyano-2,3-dihydrobenzofuran-5-yl)-lH-pyrazolo[3,4-d]pyrimidin-6-yl)amino)-N,1-dimethylcyclopentane-1-carboxamide; 2,2,2-trifluoroacetic acid]"
5,25 to 200,"CNC(=O)[C@]1(C)CC[C@@H](Nc2ncc3c(Br)nn(-c4cc(Cl)cc(CN)c4)c3n2)C1 [Example 52, (1R,3R)-3-((1-(3-(aminomethyl)-5-chlorophenyl)-3-bromo-1H-pyrazolo[3,4-d]pyrimidin-6-yl)amino)-N,1-dimethylcyclopentane-1-carboxamide; 2,2,2-trifluoroacetic acid]"
6,25 to 200,"CNC(=O)[C@]1(C)CC[C@@H](Nc2ncc3c(Br)nn(-c4ccc(-c5nnc(C)o5)c(CO)c4)c3n2)C1 [Example 58, (1R,3R)-3-((3-bromo-1-(3-(hydroxymethyl)-4-(5-methyl-1,3,4-oxadiazol-2-yl)phenyl)-1H-pyrazolo[3,4-d]pyrimidin-6-yl)amino)-N,1-dimethylcyclopentane-1-carboxamide]"
7,25 to 200,"CNC(=O)[C@]1(C)CC[C@@H](Nc2ncc3c(Br)nn(-c4ccc5c(c4)CN(S(C)(=O)=O)C5)c3n2)C1 [Example 61, (1R,3R)-3-((3-bromo-1-(2-(methylsulfonyl)isoindolin-5-yl)-1H-pyrazolo[3,4-d]pyrimidin-6-yl)amino)-N,1-dimethylcyclopentane-1-carboxamide]"
8,< 25,"CNC(=O)[C@]1(C)CC[C@@H](Nc2ncc3c(Br)nn(-c4cc(Cl)cc([C@H](C)N)c4)c3n2)C1 [Example 64, (1R,3R)-3-((1-(3-((S)-1-aminoethyl)-5-chlorophenyl)-3-bromo-1H-pyrazolo[3,4-d]pyrimidin-6-yl)amino)-N,1-dimethylcyclopentane-1-carboxamide]"
9,< 25,"CNC(=O)[C@]1(C)CC[C@@H](Nc2ncc3c(Br)nn(-c4ccc(Cl)c([C@H](C)N)c4)c3n2)C1 [Example 65, (1R,3R)-3-((1-(3-((S)-1-aminoethyl)-4-chlorophenyl)-3-bromo-1H-pyrazolo[3,4-d]pyrimidin-6-yl)amino)-N,1-dimethylcyclopentane-1-carboxamide]"
10,< 25,"CC[C@@H](N)c1cc(-n2nc(Br)c3cnc(N[C@@H]4CC[C@@](C)(C(=O)NC)C4)nc32)cc2nccnc12 [Example 66, (1R,3R)-3-((1-(8-((R)-1-aminopropyl)quinoxalin-6-yl)-3-bromo-1H-pyrazolo[3,4-d]pyrimidin-6-yl)amino)-N,1-dimethylcyclopentane-1-carboxamide]"

# Source: patent publication US11046699B2, “Pyrazolo-pyrimidin-amino-cycloalkyl compounds and their therapeutic uses” (RAPT THERAPEUTICS, INC., priority 2018, dated 2021)
